{"source": "patent US20240024262A1", "about": "“USE OF VALERIC ACID IN PREPARATION OF DRUG FOR PREVENTING AND TREATING DIABETES” (Harbin Medical University, priority 2022, published 2024)", "key": {"[1]": {"test_system": "mouse pancreatic tissues (islet β cells)", "experiment": "Histopathology of pancreas of high-fat fed mice (HE, ERK immunohistochemistry, immunofluorescence)", "type": "in vivo", "experimental": "In order to detect a blood glucose homeostasis level and an insulin function of each mouse, an oral glucose tolerance test (OGTT) for the mice was performed. At the night before this test, test mice were fasted but not water for 16 h and transferred from a feeding room to a clean experimental operation room, so that the animals could adapt to the environment. Before the OGTT started, a weight of each mouse was accurately weighed, and an injection dose of glucose was calculated according to 2 mg/g body weight, and a tail was cut for collecting blood at 0 minute, 15 minutes, 30 minutes, 60 minutes and 120 minutes after intragastric injection of the glucose. A first drop of blood after tail cutting was discarded, and then concentrations of blood glucose (mmol/L) were continuously detected using an Accu-Chek blood glucose meter (Roche diagnosis, USA). The test mice were fasted for 12 h at the night before sampling, and were anesthetized by intraperitoneal injection of a 10% chloral hydrate-containing solution. After the intraperitoneal cavities of the mice were cut, blood was collected by apical blood collection, and the test mice were killed. After being collected, blood samples were left for still standing for 2 h at the room temperature, and then centrifuged for 15 min at […], serum at the upper layer was sucked, and then biochemical detection was performed immediately. After the blood samples were collected, pancreatic tissues of the mice were immediately cut off so as to prevent pancreatic dissolution, and heads and tails of pancreas were separately stored. Then other tissues of the mice were extracted. Pictures of tissue morphologies of various parts of the mice were photographed and stored, and weights of tissues were weighed and precisely recorded. Subsequently, the extracted tissues were divided into two parts, one of the two parts was sub-packed into an EP tube, immediately rapidly frozen in liquid nitrogen and then transferred to a −80° C. refrigerator for cryopreservation; and the other part was sub-packed into an EP tube containing 4% paraformaldehyde to be fixed for making pathological tissue sections later.\n(§1) During the subsequent test, in order to observe pathological morphologies of animal tissues, paraffin sections of mouse tissues were made and subjected to HE staining, immunohistochemical staining and immunofluorescence staining. Also, mouse pancreatic tail tissues in a valeric acid intervention group and a control group were taken out from the −80° C. refrigerator and underwent TMT labeled quantitative proteome detection of the animal tissues, and differential proteins were subjected to a Western Blot test and a real-time fluorescence quantitative polymerase chain reaction (QRT PCR) test for the animal tissues to verify test results."}, "[2]": {"test_system": "Leptin receptor gene deficient db/db mice", "experiment": "Type 2 diabetes model db/db mice: food intake, body weight, blood glucose-related indexes", "type": "in vivo", "experimental": "The following drugs are taken as comparative examples: • 1. Comparative example where an existing drug serves as a positive control • (1) High-fat fed C57BL6/J mice • Sodium butyrate gavage intervention group: 75.0 mg/kg • (2) Type 2 diabetes model db/db mice • Sodium butyrate gavage intervention group: 75.0 mg/kg • Harmine gavage intervention group: 10.0 mg/kg • Metformin gavage intervention group: 100.0 mg/kg • (3) Cell line of mouse insulinoma islet β cells (Beta-TC-6) • Sodium butyrate intervention group: 1.0 mmol/L • Harmine intervention group: 10.0 μmmol/L • (4) Mouse islet β primary cell • Sodium butyrate intervention group: 1.0 mmol/L • Harmine intervention group: 10.0 μmmol/L • 2. A control test is taken as a comparative example • (1) High-fat fed C57BL6/J mice • Ordinary feed feeding group, and high-fat feed PBS gavage group • (2) Type 2 diabetes model db/db mice • Control feeding group and PBS gavage group • (3) Cell line of mouse insulinoma islet β cells (Beta-TC-6) • Blank control group, and palmitic acid (PA) intervention negative control group • (4) Mouse islet β primary cell • Blank control group, and PA intervention negative control group • Results are as follows:\n(II) In the animal test, the therapeutic effect of the valeric acid on diabetes is observed by using Leptin receptor gene deficient db/db mice (purchased from Nanjing Junke Biotechnology Co., Ltd.) as test subjects."}, "[3]": {"test_system": "db/db mouse islet tissues", "experiment": "Histopathology of pancreatic tissues of db/db mice (HE, immunofluorescence)", "type": "in vivo", "experimental": "During the subsequent test, in order to observe pathological morphologies of animal tissues, paraffin sections of mouse tissues were made and subjected to HE staining, immunohistochemical staining and immunofluorescence staining. […] Histopathological examination is also performed on the pancreatic tissues of db/db mice."}, "[4]": {"test_system": "3-phosphoinositide dependent protein kinase 1 (Pdpk1)", "experiment": "TMT proteomic detection of pancreatic tissues, HFD+VA vs HFD+PBS", "type": "in vivo, mice", "conditions": "TMT proteomics", "experimental": "as §1\nThrough functional annotation of GO and KEGG databases, metabolic pathways such as energy and glycolipid metabolism, glycogen synthesis, redox and phosphorylation are enriched (FIG. 19)."}, "[5]": {"test_system": "PI3k/Pdpk1/Akt insulin metabolic pathway", "experiment": "WB and ELISA of key proteins of PI3k/Pdpk1/Akt insulin metabolic pathway in mouse pancreatic tissues", "type": "in vivo, mice", "conditions": "p value <0.05", "experimental": "as §1"}, "[6]": {"test_system": "cell proliferation and differentiation pathway", "experiment": "WB and ELISA of classical proteins in a cell proliferation and differentiation pathway in mouse pancreatic tissues", "type": "in vivo, mice", "experimental": "as §1"}}, "data": [{"smiles": "CCCCC(=O)O", "note": "[valeric acid]", "values": [{"measurement": "proportion of ERK positive areas", "setting": "[1]; ERK staining of paraffin sections", "value": "increased significantly"}, {"measurement": "islet areas", "setting": "[1]; HE staining, HF-V group", "value": "obviously enlarged"}, {"measurement": "number of islets", "setting": "[1]; HE staining, HF-V group", "value": "increased"}, {"measurement": "number of β cells in the islet", "setting": "[1]; HE staining, HF-V group", "value": "significantly increased"}, {"measurement": "number of Ki67 stained nuclei in the pancreas", "setting": "[1]; insulin/Ki67/DAPI immunofluorescence", "value": "increased significantly"}, {"measurement": "secretion proportion of the insulin in the pancreas", "setting": "[1]; insulin/glucagon/DAPI immunofluorescence", "value": "increased significantly"}, {"measurement": "area under the OGTT curve", "setting": "[2]; compared with metformin and Harmine groups", "value": "smallest"}, {"measurement": "decrease of fasting blood glucose", "setting": "[2]; compared with the PBS control group", "value": "~10", "unit": "mmol/L"}, {"measurement": "insulin secretion", "setting": "[2]; comparison among groups / vs PBS control group", "value": "best"}, {"measurement": "weights", "setting": "[2]; vs PBS control group", "value": "decreased significantly"}, {"measurement": "islet area", "setting": "[3]; HE staining", "value": "increased significantly"}, {"measurement": "islet cells", "setting": "[3]; HE staining", "value": "increased significantly"}, {"measurement": "proportion of Ki67 (+)", "setting": "[3]; Ki67/insulin staining", "value": "increased significantly"}, {"measurement": "ratio of the insulin to glucagon", "setting": "[3]; immunofluorescence", "value": "increased significantly"}, {"measurement": "expression level of Pdpk1 in the mouse pancreatic tissues", "setting": "[4]", "value": "significantly increased"}, {"measurement": "expression level of Akt", "setting": "[5]", "value": "significantly increased"}, {"measurement": "expression level of PIPS", "setting": "[5]", "value": "significantly increased"}, {"measurement": "expression level of Pdpk1", "setting": "[5]", "value": "significantly increased"}, {"measurement": "expression level of mTOR", "setting": "[5]", "value": "significantly increased"}, {"measurement": "expression level of p-Akt", "setting": "[5]", "value": "significantly increased"}, {"measurement": "expression level of p-mTOR", "setting": "[5]", "value": "significantly increased"}, {"measurement": "expression level of ERK1/2", "setting": "[6]", "value": "significantly increased"}, {"measurement": "expression level of FoxO1A", "setting": "[6]", "value": "significantly increased"}, {"measurement": "expression level of MafA", "setting": "[6]", "value": "significantly increased"}, {"measurement": "expression level of Nkx6.1", "setting": "[6]", "value": "significantly increased"}, {"measurement": "expression level of PDX1", "setting": "[6]", "value": "significantly increased"}, {"measurement": "expression level of p-ERK1/2", "setting": "[6]", "value": "significantly increased"}]}]}
